Laboratory results taken from PubChem BioAssay (NCI).
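Dose response: 5 concentrations. Exposure: 48 h. Format: 96-well plates. Endpoint: linear interpolation; highest concentration if not reached. TGI is the concentration that stops growth completely.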

How the values were obtained:
Experiment in all cases: inhibition of tumour cell growth, NCI panel, 48 h
KM12 colon = tested on: KM12 colon
786-0 renal = tested on: 786-0 renal
RXF 393 renal = tested on: RXF 393 renal
NCI-H23 lung = tested on: NCI-H23 lung
LOX IMVI melanoma = tested on: LOX IMVI melanoma
IGROV1 ovarian = tested on: IGROV1 ovarian
SK-OV-3 ovarian = tested on: SK-OV-3 ovarian
HOP-62 NSCLC = tested on: HOP-62 NSCLC
A498 renal = tested on: A498 renal
SF-295 CNS = tested on: SF-295 CNS
M19-MEL melanoma = tested on: M19-MEL melanoma
LXFL 529 NSCLC = tested on: LXFL 529 NSCLC
TK-10 renal = tested on: TK-10 renal
UACC-257 melanoma = tested on: UACC-257 melanoma
MALME-3M melanoma = tested on: MALME-3M melanoma
HCC-2998 colon = tested on: HCC-2998 colon
EKVX NSCLC = tested on: EKVX NSCLC
SF-539 CNS = tested on: SF-539 CNS
K-562 leukemia = tested on: K-562 leukemia
RPMI-8226 leukemia = tested on: RPMI-8226 leukemia
SK-MEL-5 melanoma = tested on: SK-MEL-5 melanoma
DLD-1 colon = tested on: DLD-1 colon
CAKI-1 renal = tested on: CAKI-1 renal
OVCAR-3 ovarian = tested on: OVCAR-3 ovarian
A549 NSCLC = tested on: A549 NSCLC
HCT-15 colon = tested on: HCT-15 colon
CCRF-CEM leukemia = tested on: CCRF-CEM leukemia
OVCAR-5 ovarian = tested on: OVCAR-5 ovarian
SK-MEL-2 melanoma = tested on: SK-MEL-2 melanoma
ACHN renal = tested on: ACHN renal
SW-620 colon = tested on: SW-620 colon
SF-268 CNS = tested on: SF-268 CNS
OVCAR-4 ovarian = tested on: OVCAR-4 ovarian
NCI-H460 lung = tested on: NCI-H460 lung
SNB-78 CNS = tested on: SNB-78 CNS
XF 498 CNS = tested on: XF 498 CNS
DMS 273 small cell lung = tested on: DMS 273 small cell lung
COLO 205 colon = tested on: COLO 205 colon
U251 CNS = tested on: U251 CNS
OVCAR-8 ovarian = tested on: OVCAR-8 ovarian
HOP-92 NSCLC = tested on: HOP-92 NSCLC
SK-MEL-28 melanoma = tested on: SK-MEL-28 melanoma
UACC-62 melanoma = tested on: UACC-62 melanoma
SNB-75 CNS = tested on: SNB-75 CNS
UO-31 renal = tested on: UO-31 renal
SR leukemia = tested on: SR leukemia
NCI-H522 lung = tested on: NCI-H522 lung
MOLT-4 leukemia = tested on: MOLT-4 leukemia
SNB-19 CNS = tested on: SNB-19 CNS
KM20L2 colon = tested on: KM20L2 colon
M14 melanoma = tested on: M14 melanoma
HT29 colon = tested on: HT29 colon
SN12C renal = tested on: SN12C renal

Measured: TGI

CC1=C(O)C(=O)C2C(=O)C1C(C)C2c1ccc(C)cc1 (centres undefined)
not listed: SN12C renal
> 100 µM: all other assays above

C=CCN1C2Cc3cc(OC)c(OC)cc3C1Cc1cc(OC)c(OC)cc12
not listed: RXF 393 renal | LOX IMVI melanoma | IGROV1 ovarian | SK-OV-3 ovarian | M19-MEL melanoma | SF-539 CNS | DMS 273 small cell lung | COLO 205 colon | HOP-92 NSCLC | UACC-62 melanoma | SR leukemia
> 100 µM: all other assays above
